Experimental data reported in US9624167B2, “N-(4-hydroxy-4-methyl-cyclohexyl)-4-phenyl-benzenesulfonamides and N-(4-hydroxy-4-methyl-cyclohexyl)-4-(2-pyridyl)benzenesulfonamides and their therapeutic use” (PIMCO 2664 LIMITED, priority 2013, dated 2017).
Like-named read-outs stand apart in the source and are kept apart here.

How the values were obtained:
[1] = system: J774 macrophages; assay: Resazurin Macrophage J774 Viability Assay; type: cell-based; conditions: Mus musculus, 6 point concentration range 10 μM to 10 nM, n = 3 replicates, mean of 2 independent experiments, 72 hour incubation, read-out: IC50 (1)
Procedure: Potency was assessed using a viability assay based on the survival of the J774 macrophage cell line. Macrophages are closely related to osteoclasts and have been used previously as a model system for osteoclast survival (see, e.g., Luckman et al., 1998, “Heterocycle-containing bisphosphonates cause apoptosis and inhibit bone resorption by preventing protein prenylation: evidence from structure-activity relationships in J774 macrophages,” J. Bone Miner. Res., Vol. 13, pp. 1668-1678). The model is indicative both of effects on bone protection in diseases such as osteoporosis, osteoarthritis and rheumatoid arthritis, and of effects on inflammation since, like osteoclasts, J774 macrophages are dependent for survival on continued NFκB activation.
In vitro potency of test compounds was determined by incubation with J774 macrophages and subsequent determination of cell viability using resazurin.
Resazurin is a redox dye commonly used as an indicator of viability in cultured cells (see, e.g., Anoopkumar-Dukie, 2005, British Journal of Radiology, Vol. 78, pp. 945-947). It is non-toxic to cells and stable in culture medium, allowing continuous measurement of cell proliferation in vitro as either a kinetic or endpoint assay. The assay is based on the ability of viable, metabolically-active cells to reduce resazurin (which is blue and non-fluorescent) to resorufin and dihydroresorufin (which are red and fluorescent) using electrons from reducing species, such as nicotinamide adenine dinucleotide (NADPH) and flavin adenine dinucleotide (FADH). This transformation, from oxidised form to reduced form, can be measured either colorimetrically or fluorometrically. Insults that impair cell viability and proliferation also affects the capacity of cells to reduce resazurin, and the rate of dye reduction is directly proportional to the number of viable cells present.
For fluorescence measurements, 530-560 nm excitation and 590 nm emission wavelengths are typically used. For colorimetric measurements, absorbance at 570 nm (reduced form) and 600 nm (oxidised form) is typically measured. A simple calculation is performed to determine the relative quantities of the two species: a high ratio of resorufin (the reduced form) to resazurin (the oxidised form) is an indicator that cells are proliferating and viable. A low ratio indicates cells that are quiescent or non-viable.
J774 cells were plated at 10^4 cells per well in 100 μL αMEM (α Modified Eagle Medium) in 96-well plates and allowed to adhere overnight. The following day, test compounds were prepared as 100 mM solutions in DMSO. These stock solutions were diluted in DMSO and then diluted 1000× in culture medium (αMEM) before being added directly to the wells so as to give the desired final compound concentration. After a 72 hour incubation at 37° C./5% CO2, resazurin (Alamar Blue, Biosource International) was added to each well (1:10 v/v, 10 μL). The plate was then incubated at 37° C. for 3 hours and fluorescence was measured at 590 nm, with a 25 nm bandwidth.
The average results for each test compound were expressed as a percent (%) of the average control value reflecting cell viability. The average values across the concentrations tested were then plotted and the IC50 for was calculated by fitting the data to a 4-parameter IC50 equation using software from Grafit (Erithacus Software). Each experiment was repeated twice and the data are presented as the mean IC50 from both experiments.

[2] = system: IL-6 release from LPS-stimulated Thp1 macrophages; assay: Thp1 Macrophage IL-6 Release Assay; type: cell-based; conditions: Homo sapiens
Description: Anti-inflammatory effects were further characterised by assessing the production of interleukin-6 (IL-6) by human Thp-1 derived macrophages stimulated with a pro-inflammatory stimulus bacterial lipopolysaccharide (LPS). LPS acts with a cell-surface receptor, Toll-like receptor-4 to activate the NFκB and IRF signalling pathways to produce IL-6. The reduction of IL—in this stimulated assay is indicative of anti-inflammatory effects with utility in the treatment of conditions in which IL-6 production is aberrant.
In vitro potency of test compounds in human cells was determined by incubation with Thp1 macrophages and subsequent stimulation with an inflammatory stimulus (bacterial lipopolysaccharide (LPS)) followed by measurement of cellular interleukin-6 (IL-6) release.
Thp1 cells were plated at a concentration of 1×10^5 cells/well or 1.7×10^5 cells/well in 500 μL or 150 μL RPMI complete media containing 1% penicillin-streptomycin and 10% heat inactivated foetal bovine serum in 24-well plates or 96-well plates, respectively and allowed to adhere overnight. The following day, the cells were stimulated with phorbol myristic acid (PMA) at a final concentration of 100 nM (24-well plates) or 200 nM (96-well plates) to induce differentiation and maintained for up to 8 days with a medium change at 5 days if cells were cultured to 8 days. Test compounds were prepared as […] solutions in DMSO and then serially diluted in DMSO prior to dilution in culture medium.
The diluted compounds were added to the cultures 1 hour prior to stimulation with 100 ng/mL LPS. Following a 16 or 18 hour incubation at 37° C./5% CO2, the cell culture medium was collected and assayed for human IL-6 levels using the human IL-6 duo-set ELISA kit (R&D Systems). The average results for each test compound (n=3) were expressed as a percent (%) of the average control value. The average values across the concentrations tested were then plotted and the IC50 for the inhibition of IL-6 was calculated by fitting the data to a 4-parameter IC50 equation using software from Grafit version 6.0.12 (Erithacus Software Ltd., by Dr Robin Leatherbarrow) or GraphPad Prism version 5.04 for Windows (GraphPad Software, La Jolla, Calif., USA, www.qraphpad.com). Each experiment was repeated twice and the data are presented as the mean IC50 from both experiments.

[3] = THP-1, 1 × 10^5 cells/well, 24-well plates, 8 days, 6 point curve, IL6 measured 16 hours after LPS, read-out: IC50 (1)
[4] = THP-1, 1.7 × 10^5 cells/well, 96-well plates, 3 days, 9 point curve, IL6 measured 18 hours after LPS, read-out: IC50 (2)

Compound	IC50 [1] [nM]	IC50 [2, 3] [nM]	IC50 [2, 4] [nM]
Cc1cc(S(=O)(=O)NC2CCC(C)(O)CC2)ccc1-c1ccc(F)cc1F (single isomer, unassigned) [REF001, reference compound]	120		
Cc1cc(S(=O)(=O)N[C@H]2CC[C@H](O)CC2)ccc1-c1ccc(F)cc1F [ABD735]	100		
O=S(=O)(N[C@H]1CC[C@H](O)CC1)c1ccc(-c2ncc(Cl)cc2Cl)cc1 [ABD836, reference compound]	280		
C[C@]1(O)CC[C@@H](NS(=O)(=O)c2ccc(-c3ccc(F)cc3F)cc2)CC1 [ABD899, reference compound]	80		
C[C@]1(O)CC[C@H](NS(=O)(=O)c2ccc(-c3ccc(F)cc3F)cc2)CC1 [ABD900, reference compound]	560		
C[C@]1(O)CC[C@H](NS(=O)(=O)c2ccc(-c3ccc(Cl)cc3C#N)cc2)CC1 [HMC-C-01-A, 4′-Chloro-2′-cyano-N-((1r,4r)-4-hydroxy-4-methylcyclohexyl)biphenyl-4-sulfonamide]	130	40	180
C[C@]1(O)CC[C@@H](NS(=O)(=O)c2ccc(-c3ccc(Cl)cc3C#N)cc2)CC1 [HMC-C-01-B, 4′-Chloro-2′-cyano-N-((1s,4s)-4-hydroxy-4-methylcyclohexyl)-[1,1′-biphenyl]-4-sulfonamide]			60
C[C@]1(O)CC[C@H](NS(=O)(=O)c2ccc(-c3ccc(F)cc3C(F)(F)F)cc2)CC1 [HMC-C-02-A, 4′-Fluoro-N-((1r,4r)-4-hydroxy-4-methylcyclohexyl)-2′-(trifluoromethyl)biphenyl-4-sulfonamide]	260	1	970
C[C@]1(O)CC[C@@H](NS(=O)(=O)c2ccc(-c3ccc(F)cc3C(F)(F)F)cc2)CC1 [HMC-C-02-B, 4′-Fluoro-N-((1s,4s)-4-hydroxy-4-methylcyclohexyl)-2′-(trifluoromethyl)-[1,1′-biphenyl]-4-sulfonamide]			290
C[C@]1(O)CC[C@H](NS(=O)(=O)c2ccc(-c3c(F)cc(F)cc3F)cc2)CC1 [HMC-C-03-A, 2′,4′,6′-Trifluoro-N-((1r,4r)-4-hydroxy-4-methylcyclohexyl)biphenyl-4-sulfonamide]	140	4	50
C[C@]1(O)CC[C@@H](NS(=O)(=O)c2ccc(-c3c(F)cc(F)cc3F)cc2)CC1 [HMC-C-03-B, 2′,4′,6′-Trifluoro-N-((1s,4s)-4-hydroxy-4-methylcyclohexyl)-[1,1′-biphenyl]-4-sulfonamide]			20
C[C@]1(O)CC[C@H](NS(=O)(=O)c2ccc(-c3ccc(F)cc3F)c(F)c2)CC1 [HMC-C-04-A, 2,2′,4′-Trifluoro-N-((1r,4r)-4-hydroxy-4-methylcyclohexyl)-[1,1′-biphenyl]-4-sulfonamide]			130
C[C@]1(O)CC[C@@H](NS(=O)(=O)c2ccc(-c3ccc(F)cc3F)c(F)c2)CC1 [HMC-C-04-B, 2,2′,4′-Trifluoro-N-((1s,4s)-4-hydroxy-4-methylcyclohexyl)-[1,1′-biphenyl]-4-sulfonamide]			30
C[C@]1(O)CC[C@H](NS(=O)(=O)c2ccc(-c3ncc(F)cc3F)c(F)c2)CC1 [HMC-N-01-A, 4-(3,5-Difluoropyridin-2-yl)-3-fluoro-N-((1r,4r)-4-hydroxy-4-methylcyclohexyl)benzenesulfonamide]	130	130	280
C[C@]1(O)CC[C@@H](NS(=O)(=O)c2ccc(-c3ncc(F)cc3F)c(F)c2)CC1 [HMC-N-01-B, 4-(3,5-Difluoropyridin-2-yl)-3-fluoro-N-((1s,4s)-4-hydroxy-4-methylcyclohexyl)benzenesulfonamide]			30
C[C@]1(O)CC[C@H](NS(=O)(=O)c2ccc(-c3ncc(F)cc3F)cc2)CC1 [HMC-N-02-A, 4-(3,5-Difluoropyridin-2-yl)-N-((1r,4r)-4-hydroxy-4-methylcyclohexyl)benzenesulfonamide]	180	150	290
C[C@]1(O)CC[C@@H](NS(=O)(=O)c2ccc(-c3ncc(F)cc3F)cc2)CC1 [HMC-N-02-B, 4-(3,5-Difluoropyridin-2-yl)-N-((1s,4s)-4-hydroxy-4-methylcyclohexyl)benzenesulfonamide]			20
C[C@]1(O)CC[C@H](NS(=O)(=O)c2ccc(-c3ncc(Cl)cc3Cl)cc2)CC1 [HMC-N-03-A, 4-(3,5-Dichloropyridin-2-yl)-N-((1r,4r)-4-hydroxy-4-methylcyclohexyl)benzenesulfonamide]	170	50	
C[C@]1(O)CC[C@@H](NS(=O)(=O)c2ccc(-c3ncc(Cl)cc3Cl)cc2)CC1 [HMC-N-03-B, 4-(3,5-Dichloropyridin-2-yl)-N-((1s,4s)-4-hydroxy-4-methylcyclohexyl)benzenesulfonamide]			20
C[C@]1(O)CC[C@H](NS(=O)(=O)c2ccc(-c3ncc(Cl)cc3Cl)c(F)c2)CC1 [HMC-N-04-A, 4-(3,5-Dichloropyridin-2-yl)-3-fluoro-N-((1r,4r)-4-hydroxy-4-methylcyclohexyl)benzenesulfonamide]	180		
